In patent US20250263404A1, “AMINOPYRIDINES AS ACTIVATORS OF PI3 KINASE” (UCL Business Ltd, priority 2021, published 2025):

What was measured:
[1] = system: pAKT^S473 in MEFs and A549; assay: Time course of pAKT S473 induction in MEFs and A549; format: cell-based; conditions: 1938 (5 μM)
Source text: The inventors next monitored the activation of AKT, the best-known PI3K effector stimulated by PIP3/PI(3,4)P2 production in cells. […] As previously reported, PI3Kα-null MEFs still respond to insulin, but now in a PI3Kβ-dependent manner, as shown by sensitivity of insulin-stimulated pAKT^S473 to the PI3Kβ-selective inhibitor TGX-221 (FIG. 3b). […] Similar observations were made for mTORC1 pathway activation, as measured by S6 (Ser240/44) and 4EBP1 (Ser65) phosphorylation (FIG. 3e). […] Experiments with A549 cells and MEFs were performed separately using slightly different protocols. Briefly, A549 cells were seeded at 200,000 cells per well in 24-well plates in DMEM (10% FBS+1% P/S) and allowed to adhere overnight. The next day, cells were washed once with PBS before addition of serum-free DMEM for 24 h. On the day of treatment, cells were incubated in fresh serum-free DMEM prior to treatment. […]

[2] = target: PI3Kα (Homo sapiens, UniProt P42336); assay: FRET membrane binding assay, PI3Kα; format: biochemical; parameters: Full-length p110α was expressed in a complex with full-length p85α (for biochemistry and HDX-MS); 6xHis followed by TEV protease site (N); made in house; host or cells: Spodoptera frugiperda Sf9 (baculovirus co-infection; plasmids OP831 and OP809); conditions: compared with pY
Description: (§1) Membrane binding assays were performed as previously published (Burke, J. E. et al. Proc Natl Acad Sci USA 109, 15259-15264 (2012)). Briefly, liposomes were prepared with 5% (w/v) brain PtdIns(4,5)P2, 20% brain phosphatidylserine, 35% brain phosphatidylethanolamine, 15% brain phosphatidylcholine, 10% cholesterol, 5% sphingomyelin, and 10% dansyl-phosphatidylserine (Avanti Polar Lipids). PI3Kα was used at a final concentration of 0.5 μM. Protein solutions were preincubated with 10 μM pY or compounds for 10 min before addition of liposomes. Liposomes were used at a final concentration of 50 μg/ml. The reaction mixture contained 5 μl enzyme, 2 μl compound and 3 μl liposomes, all diluted in 30 mM HEPES, 50 mM NaCl, pH 7.4. The reaction was allowed to proceed for 10 min at room temperature in 384 black-polystyrene plates (Corning #3544) on an orbital shaker at 200 rpm. FRET signals were measured using PHERAStar (BMG) with a 280 nm excitation filter with 350 nm and 520 nm emission filters to measure Dansyl-PS FRET emissions, respectively. FRET signal shown as I-I0, where I is the intensity at 520 nm, and 10 is the intensity at 520 nm for the solution in the absence of protein.

[3] = target: T1, G106V mutant of p110α (Homo sapiens, UniProt P42336, G106V); assay: ADP-Glo kinase assay, oncogenic mutant G106V; format: biochemical; conditions: compared with pY
T1 construct: Full-length p110α was expressed in a complex with full-length p85α (for biochemistry and HDX-MS); 6xHis followed by TEV protease site (N); made in house; host or cells: Spodoptera frugiperda Sf9 (plasmid JB35)
Description: (§2) Co-stimulation of 1938 with pY led to an additive activatory effect for G106V, but not for the N345K and E545K mutants (FIG. 1f/FIG. 22f).
(§3) Kinase reactions were performed with ADP-Glo kinase assay kit (Promega Corporation). The enzyme, substrate and compounds were diluted in reaction buffer (20 mM HEPES, 50 mM NaCl, 50 mM KCl, 3 mM MgCl2, 1 mM EGTA, 1 mM TCEP, pH 7.4). Final concentrations of PI3Kα and PI3Kδ used were 25 nM and 50 nM for PI3Kβ. Liposomes (5% brain PI(4,5)P2, 20% brain phosphatidylserine, 45% brain phosphatidylethanolamine, 15% brain phosphatidylcholine, 10% cholesterol, 5% sphingomyelin (Avanti Polar Lipids)) were used at a final concentration of 1 mg/ml. The pY sequence is ESDGG(pY)[…](pY)[…].
(§4) For characterisation of the effects of 1938 on in vitro PI3K enzymology, all reactions were performed at room temperature with 384 white-polystyrene plates (Corning #3574). The final DMSO concentration in the assay was between 0.5%-1.8%. The reaction mixture contained 2 μl PI3K enzyme, 2 μl compound and/or pY and 2 μl of liposome substrate mixed with ATP. ATP was used at a final concentration of 200 μM, unless otherwise stated. The enzyme and compounds were pre-incubated for 10 min prior to addition of substrate. […] For enzyme kinetic calculations, data was expressed as velocity (pmol of ADP generated/sec). […]

[4] = target: T1, G106V mutant of p110α; assay: FRET membrane binding, oncogenic mutant G106V; format: biochemical
Description: as §2, §1

[5] = target: T2, E545K mutant of p110α (Homo sapiens, UniProt P42336, E545K); assay: ADP-Glo kinase assay, oncogenic mutant E545K; format: biochemical; conditions: mutant insensitive to pY
T2 construct: Full-length p110α was expressed in a complex with full-length p85α (for biochemistry and HDX-MS); 6xHis followed by TEV protease site (N); made in house; host or cells: Spodoptera frugiperda Sf9 (plasmid OP663)
Description: as §2, §3, §4

T1 sequence (P42336 whole entry G106V): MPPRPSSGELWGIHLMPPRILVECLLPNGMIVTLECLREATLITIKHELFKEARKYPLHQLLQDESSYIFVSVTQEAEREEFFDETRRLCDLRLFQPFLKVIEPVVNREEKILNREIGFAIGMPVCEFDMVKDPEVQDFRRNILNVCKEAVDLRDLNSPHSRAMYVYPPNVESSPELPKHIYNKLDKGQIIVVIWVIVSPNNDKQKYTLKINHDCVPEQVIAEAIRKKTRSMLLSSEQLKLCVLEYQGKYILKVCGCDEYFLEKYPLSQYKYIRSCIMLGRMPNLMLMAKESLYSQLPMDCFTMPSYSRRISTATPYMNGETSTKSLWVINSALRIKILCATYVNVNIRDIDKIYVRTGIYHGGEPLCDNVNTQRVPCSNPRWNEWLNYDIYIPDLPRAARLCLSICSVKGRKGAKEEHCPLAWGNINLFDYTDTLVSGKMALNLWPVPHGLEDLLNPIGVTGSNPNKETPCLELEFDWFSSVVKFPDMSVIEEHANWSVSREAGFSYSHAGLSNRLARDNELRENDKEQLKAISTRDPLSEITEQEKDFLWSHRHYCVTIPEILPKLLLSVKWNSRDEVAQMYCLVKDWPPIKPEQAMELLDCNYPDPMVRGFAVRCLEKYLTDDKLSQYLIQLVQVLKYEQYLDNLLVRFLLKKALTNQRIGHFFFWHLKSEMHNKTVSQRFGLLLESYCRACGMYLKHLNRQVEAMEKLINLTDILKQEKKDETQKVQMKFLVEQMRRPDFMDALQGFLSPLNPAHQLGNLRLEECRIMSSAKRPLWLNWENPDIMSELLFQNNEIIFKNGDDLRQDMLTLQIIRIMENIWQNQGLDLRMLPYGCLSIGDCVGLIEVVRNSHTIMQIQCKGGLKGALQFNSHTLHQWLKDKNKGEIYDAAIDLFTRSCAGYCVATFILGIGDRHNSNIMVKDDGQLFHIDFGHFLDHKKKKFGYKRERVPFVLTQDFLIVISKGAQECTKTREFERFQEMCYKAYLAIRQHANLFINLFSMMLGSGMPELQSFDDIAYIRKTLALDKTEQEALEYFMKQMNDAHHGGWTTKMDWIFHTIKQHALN
T1 sequence (P27986 whole entry partner): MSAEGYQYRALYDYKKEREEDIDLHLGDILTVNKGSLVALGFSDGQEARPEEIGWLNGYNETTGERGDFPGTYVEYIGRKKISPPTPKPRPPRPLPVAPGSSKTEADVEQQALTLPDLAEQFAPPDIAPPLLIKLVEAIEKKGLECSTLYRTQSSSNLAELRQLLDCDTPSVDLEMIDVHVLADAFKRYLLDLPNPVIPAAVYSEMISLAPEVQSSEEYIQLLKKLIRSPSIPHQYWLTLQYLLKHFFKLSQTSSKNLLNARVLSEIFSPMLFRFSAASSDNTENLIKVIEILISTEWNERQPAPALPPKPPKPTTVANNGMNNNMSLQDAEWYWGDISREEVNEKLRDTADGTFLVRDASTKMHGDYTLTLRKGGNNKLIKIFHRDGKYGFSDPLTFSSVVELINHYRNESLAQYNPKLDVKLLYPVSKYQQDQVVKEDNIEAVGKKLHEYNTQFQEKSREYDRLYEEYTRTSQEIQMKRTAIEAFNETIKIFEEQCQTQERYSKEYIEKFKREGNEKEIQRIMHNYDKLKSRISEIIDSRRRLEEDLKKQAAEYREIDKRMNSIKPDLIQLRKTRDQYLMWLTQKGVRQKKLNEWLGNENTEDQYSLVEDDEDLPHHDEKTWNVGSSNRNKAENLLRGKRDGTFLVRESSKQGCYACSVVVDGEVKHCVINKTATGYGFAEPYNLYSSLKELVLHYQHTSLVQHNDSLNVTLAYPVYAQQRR
T2 sequence (P42336 whole entry E545K): as the sequence (P42336 whole entry G106V) above, with V106G, E545K counted along it
T2 sequence (P27986 whole entry partner): as the sequence (P27986 whole entry partner) above
Chain of PI3Kα (P42336 whole entry): as the sequence (P42336 whole entry G106V) above, with V106G counted along it
Chain of PI3Kα (P27986 whole entry partner): as the sequence (P27986 whole entry partner) above

binding of PI3Kα to lipid membranes, maximum level [2]: about half of that induced by pY | membrane binding of G106V [4]: did not increase | activation of E545K mutant [5]: further activated
Compound: CCN1CCN(c2ccc(Nc3cc(Nc4cccc5c4N(C(C)=O)CC5)ccn3)cc2)CC1 [Example 1938]
time of onset of pAKT^S473 induction [1]: 5 min | time of peak pAKT^S473 activation [1]: 30 min | activation of G106V mutant [3]: levels comparable with stimulation with pY
